Results: US11766447B2, “3′3′-cyclic dinucleotide analogue comprising a cyclopentanyl modified nucleotide as sting modulator” (INSTITUTE OF ORGANIC CHEMISTRY AND BIOCHEMISTRY ASCR, V.V.I., priority 2019, dated 2023)
Like-named read-outs stand apart in the source and are kept apart here.

Experiments:
WT STING = WT STING (Homo sapiens, UniProt Q86WV6, H232R); experiment: 293T WT STING standard reporter assay; format: cell-based; parameters: host or cells: 293T (ATCC CRL-3216), stably transfected, with 4xISRE firefly luciferase reporter; conditions: 293T wtSTING-FL cells, ISRE firefly luciferase; no digitonin; 7 hours with compounds; 8-point curve
Excerpt: Two complementary oligonucleotides of the sequence […] […] […] […] […] The oligonucleotides were mixed in equal molar amounts, hybridized, and cleaved by restriction endonucleases HindIII (cat. #. R0104S, NEB, Ipswich, USA) and BglII (cat. #R0144S, NEB, Ipswich, USA). Ultimately, they were ligated into plasmid pGL4.27 (cat. #E6651, Promega, Madison, USA) linearized with the same enzymes. As result the sequence with four ISRE sites was placed upstream of the minimum promoter of firefly luciferase reporter gene.
After 5 minutes incubation at room temperature (RT), 250 μL of the mixture was added dropwise to the cells in one well. Cells were incubated 36 hours at 37° C. with 5% CO2, and then detached with 0.05% Trypsin and 0.22 g/L EDTA (both cat. #L0941, Biowest, Riverside, USA).
Transfected cells were seeded onto poly-D-lysine coated six well plates at density 50,000 cells per 1 cm^2 in DMEM medium with high glucose containing 10% heat inactivated FBS, 30 μg/mL blasticidin (cat. #ant-b1-05, InvivoGen, San Diego, USA), 0.06 mg/ml Penicillin G and 0.1 mg/ml Streptomycin Sulfate (both cat. #. L0018, Biowest, Riverside, USA). The medium was replenished every 3-4 days until visible colonies of cells resistant to blasticidin were formed.
Blasticidin resistant cells stably expressing WT STING were further transfected with […] plasmid following the same procedure as described above. […] Homogeneous culture of stably double transfected cells was prepared by limiting dilution of cells in 96 well plates and wells with cells were selected that originated from a single cell.
The medium was removed next day and three-fold serial dilutions of compounds in 100 μl medium were added to the cells. The plates with cells were incubated for 7 hours at 37° C. with 5% CO2. After 50 μl of the medium was removed, 30 μl of ONE-Glo™ Luciferase Assay System reagent (cat. #E6120, Promega, Madison, USA) was added to each well and luminescence was read on Synergy H1 (Biotek, Winooski, USA).

[1] = test system: peripheral blood mononuclear cells (PBMC); experiment: Peripheral blood mononuclear cell (PBMC) assay; format: cell-based; conditions: 1 h with compounds, washed, 15 hour incubation, average of one to four donors
Experimental: Selected compounds were tested in an in vitro peripheral blood mononuclear cell (PBMC) assay. […] Serially diluted tested compounds were added to wells in 50 μl of cultivation medium and cell were incubated with compounds for 1 h at 37° C. with 5% CO2. Plates with cells were then spun 500 g for 5 minutes and medium was removed. Cells were washed twice with the cell culture medium by the use of centrifugation and gently resuspended in 100 μl medium without compounds. After 15 hour incubation at 37° C. with 5% CO2, the cell culture medium was collected and the levels of interferon-alpha (INF-α), interferon-gamma (INF-γ) and tumor necrosis factor-alpha (TNF-α) were determined with ProcartaPlex Assays (ThermoFisher, Waltham, USA) and MAGPIX System (Merck KGaA, Darmstadt, Germany). […] Values reported are an average of runs from one to four donors.

[2] = PBMC, interferon-alpha level, read-out: PBMC EC50 (μM) IFN-α
[3] = PBMC, interferon-gamma level, read-out: PBMC EC50 (μM) IFN-γ
[4] = PBMC, tumor necrosis factor-alpha level, read-out: PBMC EC50 (μM) TNF-α
[5] = interferon-alpha level, read-out: PBMC EC50 (μM) IFN-α
[6] = interferon-gamma level, read-out: PBMC EC50 (μM) IFN-γ
[7] = tumor necrosis factor-alpha level, read-out: PBMC EC50 (μM) TNF-α

WT STING, sequence (Q86WV6 whole entry H232R): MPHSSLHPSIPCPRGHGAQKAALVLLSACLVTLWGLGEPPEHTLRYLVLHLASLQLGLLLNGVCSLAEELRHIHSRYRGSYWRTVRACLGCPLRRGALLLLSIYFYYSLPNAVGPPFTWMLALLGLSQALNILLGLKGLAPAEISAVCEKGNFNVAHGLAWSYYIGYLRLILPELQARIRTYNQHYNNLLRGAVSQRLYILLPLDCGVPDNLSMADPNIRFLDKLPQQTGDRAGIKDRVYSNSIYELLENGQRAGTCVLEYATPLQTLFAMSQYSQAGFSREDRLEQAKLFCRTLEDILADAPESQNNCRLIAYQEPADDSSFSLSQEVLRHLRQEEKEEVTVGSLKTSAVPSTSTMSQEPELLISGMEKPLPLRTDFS

| Compound | EC50 (WT STING) [nM] | EC50 [1, 2] [µM] | EC50 [1, 3] [µM] | EC50 [1, 4] [µM] | EC50 [1, 5] [µM] | EC50 [1, 6] [µM] | EC50 [1, 7] [µM] |
| --- | --- | --- | --- | --- | --- | --- | --- |
| CC(C)(C)C(=O)OCOP1(=O)OC[C@H]2C[C@@H](n3cnc4c(N)ncnc43)C(F)[C@H]2OP(=O)(OCOC(=O)C(C)(C)C)OC[C@H]2O[C@@H](n3cnc4c(N)ncnc43)[C@@H](F)C2O1 (single isomer, unassigned) [Compound 136b] | 60 |  |  |  |  |  |  |
| CC(C)(C)C(=O)OCOP1(=O)OC[C@H]2C[C@@H](n3cnc4c(N)ncnc43)C(F)[C@H]2OP(=O)(OCOC(=O)C(C)(C)C)OC[C@H]2O[C@@H](n3cnc4c(N)ncnc43)[C@@H](F)C2O1 (single isomer, unassigned) [Compound 136c] | 50 |  |  |  |  |  |  |
| CC(C)(C)C(=O)OCOP1(=O)OC[C@H]2C[C@@H](n3cnc4c(N)ncnc43)C(F)[C@H]2OP(=O)(OCOC(=O)C(C)(C)C)OC[C@H]2O[C@@H](n3cnc4c(N)ncnc43)[C@@H](F)C2O1 (single isomer, unassigned) [Compound 136d] | 10 | 0.9 | 2.4 | 0.8 |  |  |  |
| CC(C)(C)C(=O)OCOP1(=O)OC[C@H]2O[C@@H](n3cnc4c(N)ncnc43)C(F)C2OP(=O)(OCOC(=O)C(C)(C)C)OC[C@H]2C[C@@H](n3cnc4c(N)ncnc43)CC2O1 (single isomer, unassigned) [Compound 137a] | 200 |  |  |  |  |  |  |
| CC(C)(C)C(=O)OCOP1(=O)OC[C@H]2O[C@@H](n3cnc4c(N)ncnc43)C(F)C2OP(=O)(OCOC(=O)C(C)(C)C)OC[C@H]2C[C@@H](n3cnc4c(N)ncnc43)CC2O1 (single isomer, unassigned) [Compound 137b] | 90 |  |  |  |  |  |  |
| CC(C)(C)C(=O)OCOP1(=O)OC[C@H]2C[C@@H](n3cnc4c(N)ncnc43)C(F)C2OP(=O)(OCOC(=O)C(C)(C)C)OC[C@H]2C[C@@H](n3cnc4c(N)ncnc43)C(F)C2O1 (single isomer, unassigned) [Compound 138a] | 70 |  | 1.5 | 1.9 | 3.2 |  |  |
| CC(C)(C)C(=O)OCOP1(=O)OC[C@H]2C[C@@H](n3cnc4c(N)ncnc43)C(F)C2OP(=O)(OCOC(=O)C(C)(C)C)OC[C@H]2C[C@@H](n3cnc4c(N)ncnc43)C(F)C2O1 (single isomer, unassigned) [Compound 138b] | 20 |  |  |  | 1 | 2.6 | 1.3 |
| CC(C)OC(=O)OCOP1(=O)OC[C@H]2O[C@@H](n3cnc4c(N)ncnc43)[C@H](F)[C@@H]2OP(=O)(OCOC(=O)OC(C)C)OC[C@H]2C[C@@H](n3cnc4c(N)ncnc43)[C@H](F)[C@@H]2O1 (single isomer, unassigned) [Compound 143a] | 100 |  |  |  |  |  |  |
| CCC(C)(C)C(=O)OCOP1(=O)OC[C@H]2O[C@@H](n3cnc4c(N)ncnc43)[C@H](F)[C@@H]2OP(=O)(OCOC(=O)C(C)(C)CC)OC[C@H]2C[C@@H](n3cnc4c(N)ncnc43)[C@H](F)[C@@H]2O1 (single isomer, unassigned) [Compound 144a] | 20 |  |  |  |  |  |  |
| CC1(C(=O)OCOP2(=O)OC[C@H]3O[C@@H](n4cnc5c(N)ncnc54)[C@H](F)[C@@H]3OP(=O)(OCOC(=O)C3(C)CCCCC3)OC[C@H]3C[C@@H](n4cnc5c(N)ncnc54)[C@H](F)[C@@H]3O2)CCCCC1 (single isomer, unassigned) [Compound 145a] | 120 |  |  |  |  |  |  |
| (((2R,3R,3aR,7aR,9R,10S,10aR,14aR)-2,9-bis(6-amino-9H-purin-9-yl)-3,10-difluoro-12-hydroxy-5,12-dioxidodecahydro-2H-cyclopenta[d]furo[3,2-j][1,3,7,9]tetraoxa[2,8]diphosphacyclododecin-5-yl)oxy)methyl pivalate [Compound 135a] | 300 |  |  |  |  |  |  |

Stronger by EC50 (WT STING), values ahead:

| EC50 (WT STING) [nM] | Compound | EC50 [1, 2] [µM] | EC50 [1, 3] [µM] | EC50 [1, 4] [µM] | EC50 [1, 5] [µM] | EC50 [1, 6] [µM] | EC50 [1, 7] [µM] |
| --- | --- | --- | --- | --- | --- | --- | --- |
| 1 | CCC(C)(C)C(=O)OCOP1(=O)OC[C@H]2O[C@@H](n3cnc4c(N)ncnc43)[C@H](F)[C@@H]2OP(=O)(OCOC(=O)C(C)(C)CC)OC[C@H]2C[C@@H](n3cnc4c(N)ncnc43)[C@H](F)[C@@H]2O1 (single isomer, unassigned) [Compound 144c] | 0.004 | 0.003 | 0.002 |  |  |  |
| 1 | CC1(C(=O)OCOP2(=O)OC[C@H]3O[C@@H](n4cnc5c(N)ncnc54)[C@H](F)[C@@H]3OP(=O)(OCOC(=O)C3(C)CCCCC3)OC[C@H]3C[C@@H](n4cnc5c(N)ncnc54)[C@H](F)[C@@H]3O2)CCCCC1 (single isomer, unassigned) [Compound 145b] | 0.007 | 0.002 | 0.006 |  |  |  |
| 0.1 | CCCCCCCC(=O)OCOP1(=O)OC[C@H]2O[C@@H](n3cnc4c(N)ncnc43)[C@H](F)[C@@H]2OP(=O)(OCOC(=O)CCCCCCC)OC[C@H]2C[C@@H](n3cnc4c(N)ncnc43)[C@H](F)[C@@H]2O1 (single isomer, unassigned) [Compound 146a] | 0.04 |  |  |  |  |  |
| 0.3 | CCCCCCCC(=O)OCOP1(=O)OC[C@H]2O[C@@H](n3cnc4c(N)ncnc43)[C@H](F)[C@@H]2OP(=O)(OCOC(=O)CCCCCCC)OC[C@H]2C[C@@H](n3cnc4c(N)ncnc43)[C@H](F)[C@@H]2O1 (single isomer, unassigned) [Compound 146b] |  |  |  | 0.02 | 0.01 | 0.01 |
| 1 | CCCCCCCC(=O)OCOP1(=O)OC[C@H]2O[C@@H](n3cnc4c(N)ncnc43)[C@H](F)[C@@H]2OP(=O)(OCOC(=O)CCCCCCC)OC[C@H]2C[C@@H](n3cnc4c(N)ncnc43)[C@H](F)[C@@H]2O1 (single isomer, unassigned) [Compound 146c] |  |  |  | 0.02 | 0.02 | 0.01 |
| 3 | CC(C)(C)C(=O)OCOP1(=O)OC[C@H]2O[C@@H](n3cnc4c(N)ncnc43)CC2OP(=O)(OCOC(=O)C(C)(C)C)OC[C@H]2C[C@@H](n3cnc4c(N)ncnc43)C(F)C2O1 (stereo partly drawn) [Compound 139a, (((2R,3aS,7aR,9R,10S,10aR,14aR)-2,9-bis(6-amino-9H-purin-9-yl)-10-fluoro-5,12-dioxidodecahydro-2H-cyclopenta[d]furo[3,2-j][1,3,7,9]tetraoxa[2,8]di-phosphacyclododecine-5,12-diyl)bis(oxy))bis(methylene) bis(2,2-dimethylpropanoate)] |  | 0.1 | 0.1 |  |  |  |
| 1 | CC(C)(C)C(=O)OCOP1(=O)OC[C@H]2O[C@@H](n3cnc4c(N)ncnc43)CC2OP(=O)(OCOC(=O)C(C)(C)C)OC[C@H]2C[C@@H](n3cnc4c(N)ncnc43)C(F)C2O1 (stereo partly drawn) [Compound 139b, (((2R,3aS,7aR,9R,10S,10aR,14aR)-2,9-bis(6-amino-9H-purin-9-yl)-10-fluoro-5,12-dioxidodecahydro-2H-cyclopenta[d]furo[3,2-j][1,3,7,9]tetraoxa[2,8]di-phosphacyclododecine-5,12-diyl)bis(oxy))bis(methylene) bis(2,2-dimethylpropanoate)] |  |  |  | 0.3 | 0.1 | 0.1 |
| 5 | CC(C)OC(=O)OCOP1(=O)OC[C@H]2O[C@@H](n3cnc4c(N)ncnc43)C(F)C2OP(=O)(OCOC(=O)OC(C)C)OC[C@H]2C[C@@H](n3cnc4c(N)ncnc43)C(F)C2O1 (stereo partly drawn) [Compound 143b, {[(1R,6R,8R,9R,10R,15R,17R,18S)-8,17-bis(6-amino-9H-purin-9-yl)-9,18-difluoro-3,12-dioxo-3-({[(propan-2-yloxy)carbonyl]oxy}methoxy)-2,4,7,11,13-pentaoxa-3λ^5,12λ^5-diphosphatricyclo[13.3.0.0^6,10]octadecan-12-yl]oxy}methyl propan-2-yl carbonate] | 0.3 | 0.15 | 0.3 |  |  |  |
